# Measurements: EP4488279A1, “SUBSTITUTED HEXAHYDRO-2H-PYRAZINO[1,2-A]PYRAZIN-1(6H)-ONE DERIVATIVES AS ACTIVATORS OF HUMAN CASEINOLYTIC PROTEASE P (HSCLPP)” (Centro Atlantico del Medicamento S.A (Ceamed, S.A), priority 2023, dated 2025)
# Read-outs that look alike come from different tables or passages of the source.
# Key:
# Yeast + HsCIpP = assay: Yeast growth inhibition screen, yeast expressing human ClpP; format: cell-based; details: Saccharomyces cerevisiae, 24 h, read-out: Yeast + HsCIpP GI50
# Text: This technique allows to directionally assemble several DNA fragments into one single DNA piece. It is based on plasmid libraries that share the same DNA backbone but differ in the type of the insert. The assembly of the final cassette is based on the "Golden Gate Cloning" method. Human CLPP gene sequence (codon-optimized for yeast translation) was amplified with well-designed primers from a plasmid kindly provided by Dr. Michael David Tyers (University of Montreal). Once amplified, a MoClo reaction was performed to obtain the final integrative cassette. This cassette was composed as follows: • Type 1: ConLS 3' connector. • Type 2: TDH3 gene promoter (strong and constitutive expression). • Type 3: Amplified human CLPP gene. • Type 4: ADH1 gene terminator. • Type 5: ConR1 5' connector. • Type 6: LEU2 gene as selectable marker for yeast. • Type 7: 3' HO gene homology sequence for yeast integration. • Type 8a: KanR-ColE1 sequence for bacterial amplification and antibiotic resistance. • Type 8b: 5' HO gene homology sequence for yeast integration.
# Digestion patterns with several restriction enzymes were carried out to confirm the success of the MoClo system. An extra restriction enzyme reaction (Notl) was performed to linearize the DNA fragment and deplete the bacterial part.
# (§1) These cells contain mutants in YRS1, YRR1, PDR1 and PDR3 genes, which are involved in polydrug and pleiotropic resistance networks.
# Yeast cells were transformed with the linearized cassette and transformant colonies were selected on minimum media without leucine. Independent clones were checked by PCR and positive ones were stored at -80 °C until use.
# (§2) The yeast (both HsCpIP+ and HsCIpP-) are incubated in petri dishes with YPD (Yeast extract peptone dextrose) at 25 °C overnight, after which a colony is isolated, suspended in a flask with fresh YPD and incubating again under the same conditions but with agitation. […] 100 µl of this solution was then placed into the appropriated wells of a standard 96-well plate. Stock solutions (DMSO, 10 mM) of the compounds to be tested are diluted in YPD to 2X of their final concentrations to be tested, and 100 µl added to the appropriate wells. 100 µl of YPD was added to wells designated as the negative control wells, while ONC206 (0.5 µM) was used as the positive control. Once all compounds were added to the plate, an initial T = 0 absorbance value was recorded at 600 Nm. The plate was then incubated at 25 °C with gentle shaking for 24 h. The plates can either be read at multiple time points using a TECAN Spark® Multimode Microplate Reader, or at the end of the experiment using a standard spectrophotometer.
# (§3) Table 2: Growth inhibition (GI50) values for compounds of the present invention in yeast containing HsCIpP, and yeast without HsCIpP.
# Yeast - HsCIpP = assay: Yeast growth inhibition screen, yeast without human ClpP (selectivity control); format: cell-based; details: Saccharomyces cerevisiae, read-out: Yeast - HsCIpP GI50
# Description: as §1, §2, §3
# 4T1 = assay: MTT cell viability assay, 4T1; format: cell-based; details: Mus musculus, read-out: IC50 4T1 48 H
# Description: This a mouse epithelial breast cancer cell line classified as being triple negative and mimics human breast cancer; stage IV.
# Cell viability was assayed by measuring the mitochondrial reduction of the tetrazolium salt 3-(4,5-methyltiazol-2yl)-2,5diphenyl-tetrazolium bromide] (MTT) (Applichen; A2231,0010) [Mosmann T. J Immunol Methods. […] Oncogene. […] Cells were seeded at a density according to their exponential growth phase (normally 1000 to 5000/well). The cells were cultured at 37 °C in the dark in air containing 5% CO2. After 24h either vehicle (0.05% DMSO), or drug, was added to culture medium at the indicated concentrations (10 to 0,01microM). […] The medium was then removed, and the precipitated formazan was solubilized by the addition of DMSO (200 µL).
# MDA-MB-231 = assay: MTT cell viability assay, MDA-MB-231; format: cell-based; details: Homo sapiens, MDA-MB-231 cells, 72 H, average of at least two independent experiments
# Description: This a human breast cancer cell line derived from a metastatic site from a person.
# (§4) Cell viability was assayed by measuring the mitochondrial reduction of the tetrazolium salt 3-(4,5-methyltiazol-2yl)-2,5diphenyl-tetrazolium bromide] (MTT) (Applichen; A2231,0010) [Mosmann T. J Immunol Methods. […] Oncogene. […] Cells were seeded at a density according to their exponential growth phase (normally 1000 to 5000/well). The cells were cultured at 37 °C in the dark in air containing 5% CO2. After 24h either vehicle (0.05% DMSO), or drug, was added to culture medium at the indicated concentrations (10 to 0,01microM). After another 72 h, MTT (0.3 mg/ml) was added to cells, followed by incubation for 2-4h at 37 °C in the dark. The medium was then removed, and the precipitated formazan was solubilized by the addition of DMSO (200 µL).
# U2 OS = assay: MTT cell viability assay, U2 OS; format: cell-based; details: Homo sapiens, U2OS, U2 OS cells, 72 H, average of at least two independent experiments
# Description: U2 OS [American Type Culture Collection (ATCC) reference number HTB-96]. This is a human bone cancer (a moderately differentiated sarcoma) cell derived from an osteosarcoma patient.
# as §4
# DU-145 = assay: MTT cell viability assay, DU-145; format: cell-based; details: Homo sapiens, DU-145 cells, 72 H, average of at least two independent experiments
# Description: This a human prostate cancer cell line derived from a metastatic site (brain) of a person.
# as §4
# PANC1 = assay: MTT cell viability assay, PANC1; format: cell-based; details: Homo sapiens, PANC-1, PANC1 cells, 72 H, average of at least two independent experiments
# Description: This a human cancer cell line derived from the pancreas of a person.
# as §4
# MDA-MB-231 cells = assay: cells; details: for GI50 / CC50: Homo sapiens, MDA-MB-231, 72 h; for CC50: read-out: LC50; for Result / TGI50: MDA-MB-231 72 H, SRB; for Result: cytostatic or not; for TGI50: total growth inhibition concentration
# Description: In order to measure the cell population at the time zero (Tz) a plate of cells was stained with SRB 24 hours after seeding. The cell monolayers are fixed with cold 5% (w/v) trichloroacetic acid for 60 minutes at 4°C. The excess of trichloroacetic acid is removed by washing five times with distilled water. Sulforhodamine B (SRB) solution [50 µL at 0.4%(w/v) in 1% acetic acid] is added to each well and plates are incubated for 8 minutes at room temperature. The excess dye is removed by washing five times with 1% (v/v) acetic acid. The bound stain is subsequently solubilized with (100 µL) 10 mM trizma base and the absorbance is read on automated plate reader at a wavelength of 550 nm.
# Compounds at various concentrations were added to an identical cell-seeded (non-treated) plate and incubated at 37°C (5% CO2) for an additional […]. Cells were fixed and stained following the same protocol. The measurement of the cell population after 72 hours in the presence of the drug is (Ti). Several wells in the same plate were treated with the control vehicle.
# Using the absorbance measurements, time zero (Tz), control growth (C), and test growth in the present of the compound (Ti) the percentage growth inhibition is calculated as: • [(Ti-Tz)/(C-Tz)] x 100 for concentrations for which Ti >/= Tz • [(Ti-Tz)/Tz] x 100 for concentrations for which Ti <Tz
# These values were determined using GraphPad software v5 (San Diego, CA).
# [1] = yeast without HsCIpP, 24 h at 25 °C, absorbance at 600 nm
# [2] = 4T1 cells, 48 H, MTT, average of at least two independent experiments
SMILES,GI50 (Yeast + HsCIpP) [nM],GI50 (Yeast - HsCIpP; [1]) [nM],IC50 (4T1; [2]) [nM],IC50 (MDA-MB-231) [nM],IC50 (U2 OS) [nM],IC50 (DU-145) [nM],IC50 (PANC1) [nM],GI50 (MDA-MB-231 cells) [nM],CC50 (MDA-MB-231 cells) [nM],Result (MDA-MB-231 cells),TGI50 (MDA-MB-231 cells) [µM],GI50 (Yeast - HsCIpP; 24 h) [nM],"IC50 (4T1; 4T1, 48 h) [nM]"
O=C1C2CN(Cc3ccccc3)CCN2CCN1Cc1cccc(Cl)c1 (stereo not shown) [Compound 9],690,> 10000,930,935,1140,1080,830,–,–,–,–,–,–
O=C1C2CN(Cc3ccccc3)CCN2CCN1Cc1ccc(C(F)(F)F)cc1 (stereo not shown) [Compound 10],180,> 10000,650,635,1000,640,640,–,–,–,–,–,–
O=C1C2CN(Cc3ccccc3)CCN2CCN1Cc1ccc(F)cc1 (stereo not shown) [Compound 11],620,> 10000,515,490,800,410,600,–,–,–,–,–,–
N#Cc1cccc(CN2CCN3CCN(Cc4ccc(C(F)(F)F)cc4)C(=O)C3C2)c1 (stereo not shown) [Compound 12],75,> 10000,< 100,< 100,200,100,< 100,< 100,> 10000,Cytostatic,>10,–,–
"O=C1C2CN(Cc3cccc(F)c3)CCN2CCN1Cc1cccc(C(F)(F)F)c1 (stereo not shown) [Compound 13, 8-(3-fluorobenzyl)-2-(3-(trifluoromethyl)benzyl)hexahydro-2H-pyrazinof1,2-alpyrazin-1(6H)-one]",40,> 10000,170,190,300,250,165,420,> 10000,Cytostatic,>10,–,–
"O=C1C2CN(Cc3ccc(C(F)(F)F)cc3)CCN2CCN1Cc1ccc(C(F)(F)F)cc1 (stereo not shown) [Compound 14, 8-(4-trifluoromethylbenzyl)-2-(4-(trifluoromethyl)benzyl)hexahydro-2H-pyrazino[1,2-a]pyrazin-1(6H)-one]",2580,–,2220,–,–,–,240,–,–,–,–,> 10000,–
"Cc1ccccc1CN1C(=O)C2=C(CCN(Cc3ccccc3)C2)N2CCN=C12 [ONC201, reference compound]",–,–,–,2280,4800,1710,1720,–,–,Cytostatic,>10,–,2220
"O=C1C2=C(CCN(Cc3ccccc3)C2)N2CCN=C2N1Cc1ccc(F)cc1F [ONC206, reference compound]",4560,–,600,600,800,370,300,730,–,Cytostatic,>10,> 10000,–
